In publication PMC5218480 (PLoS ONE, 2017):

Tested on: MV-4-11 cells
Assay: Gene expression microarray analysis (Affymetrix PrimeView) and GSEA
Type: cell-based, human
Set-up: RFU PODN (11730768_x_at) / Fold change /veh PODN (11730768_x_at) / RFU LINC00158 (11744669_a_at) / Fold change /veh LINC00158 (11744669_a_at) / RFU DUSP10 (11751237_a_at) / Fold change /veh DUSP10 (11751237_a_at) / RFU ID3 (11757404_x_at) / Fold change /veh ID3 (11757404_x_at) / RFU PLEKHG5 (11737974_s_at) / Fold change /veh PLEKHG5 (11737974_s_at) / RFU LRRC4B (11730491_at) / Fold change /veh LRRC4B (11730491_at) / RFU GIMAP4 (11747438_a_at) / Fold change /veh GIMAP4 (11747438_a_at) / RFU KRT8 (11758183_x_at) / Fold change /veh KRT8 (11758183_x_at) / RFU CNN1 (11734310_a_at) / Fold change /veh CNN1 (11734310_a_at) / RFU VPS37D (11726825_at) / Fold change /veh VPS37D (11726825_at) / RFU C10orf10 (11716522_x_at) / Fold change /veh C10orf10 (11716522_x_at) / RFU KIR2DL2 /// KIR2DL4 /// KIR2DL5A /// KIR2DL5B /// KIR2DS1 /// KIR2DS2 /// KIR2DS3 /// KIR2DS4 /// KIR3DL3 /// KIR3DL3 /// KIR3DS1 (11738374_at) / Fold change /veh KIR2DL2 /// KIR2DL4 /// KIR2DL5A /// KIR2DL5B /// KIR2DS1 /// KIR2DS2 /// KIR2DS3 /// KIR2DS4 /// KIR3DL3 /// KIR3DL3 /// KIR3DS1 (11738374_at) / RFU C1QL1 (11718748_at) / Fold change /veh C1QL1 (11718748_at) / RFU TMPRSS4 (11747572_a_at) / Fold change /veh TMPRSS4 (11747572_a_at) / RFU HAMP (11756126_x_at) / Fold change /veh HAMP (11756126_x_at) / RFU RNFT2 (11725882_a_at) / Fold change /veh RNFT2 (11725882_a_at) / RFU NR4A2 (11747474_a_at) / Fold change /veh NR4A2 (11747474_a_at) / RFU ABCC12 (11746883_a_at) / Fold change /veh ABCC12 (11746883_a_at) / RFU TMEM136 (11760407_x_at) / Fold change /veh TMEM136 (11760407_x_at) / RFU CLDN22 /// WWC2 (11732394_at) / Fold change /veh CLDN22 /// WWC2 (11732394_at) / RFU HLA-DPB1 (11760878_x_at) / Fold change /veh HLA-DPB1 (11760878_x_at) / RFU SPINT1 (11716480_a_at) / Fold change /veh SPINT1 (11716480_a_at) / RFU GAP43 (11754022_s_at) / Fold change /veh GAP43 (11754022_s_at) / RFU A4GNT (11735810_at) / Fold change /veh A4GNT (11735810_at) / RFU PRB3 (11715151_x_at) / Fold change /veh PRB3 (11715151_x_at) / RFU TUBB4B (11761932_at) / Fold change /veh TUBB4B (11761932_at) / RFU CAPN14 (11732068_a_at) / Fold change /veh CAPN14 (11732068_a_at) / RFU TMCC2 (11721928_a_at) / Fold change /veh TMCC2 (11721928_a_at) / RFU IRGQ (11745062_a_at) / Fold change /veh IRGQ (11745062_a_at) / RFU FAM174B (11720279_a_at) / Fold change /veh FAM174B (11720279_a_at) / RFU TMPRSS4 (11748680_a_at) / Fold change /veh TMPRSS4 (11748680_a_at) / RFU FAM212B (11763350_a_at) / Fold change /veh FAM212B (11763350_a_at) / RFU PLEKHG5 (11743358_a_at) / Fold change /veh PLEKHG5 (11743358_a_at) / RFU ZSCAN30 (11745921_a_at) / Fold change /veh ZSCAN30 (11745921_a_at) / RFU CMKLR1 (11741424_a_at) / Fold change /veh CMKLR1 (11741424_a_at) / RFU LOC101060620 /// MAPK8IP1 (11723275_at) / Fold change /veh LOC101060620 /// MAPK8IP1 (11723275_at) / RFU SPTSSB (11747773_x_at) / Fold change /veh SPTSSB (11747773_x_at) / RFU PRSS12 (11739890_at) / Fold change /veh PRSS12 (11739890_at) / RFU BIN1 (11741810_x_at) / Fold change /veh BIN1 (11741810_x_at) / RFU WNT11 (11732464_a_at) / Fold change /veh WNT11 (11732464_a_at) / RFU C10orf10 (11716521_a_at) / Fold change /veh C10orf10 (11716521_a_at) / RFU C5orf56 (11738089_at) / Fold change /veh C5orf56 (11738089_at) / RFU CYB561 (11721691_x_at) / Fold change /veh CYB561 (11721691_x_at) / RFU ANKRD19P (11752326_a_at) / Fold change /veh ANKRD19P (11752326_a_at) / RFU OR2T12 /// OR2T33 /// OR2T8 (11738714_s_at) / Fold change /veh OR2T12 /// OR2T33 /// OR2T8 (11738714_s_at) / RFU VCAN (11748164_a_at) / Fold change /veh VCAN (11748164_a_at) / RFU JSRP1 (11732532_at) / Fold change /veh JSRP1 (11732532_at) / RFU KRTAP10-11 (11738290_x_at) / Fold change /veh KRTAP10-11 (11738290_x_at) / RFU MYO3A (11730013_a_at) / Fold change /veh MYO3A (11730013_a_at) / RFU EBF3 (11725865_a_at) / Fold change /veh EBF3 (11725865_a_at) / RFU CAMK2N1 (11719241_x_at) / Fold change /veh CAMK2N1 (11719241_x_at) / RFU C5orf56 (11738088_a_at) / Fold change /veh C5orf56 (11738088_a_at) / RFU OLFML3 (11715873_a_at) / Fold change /veh OLFML3 (11715873_a_at) / RFU LOC100653217 /// NTM (11731650_a_at) / Fold change /veh LOC100653217 /// NTM (11731650_a_at) / RFU MAPK11 (11762145_a_at) / Fold change /veh MAPK11 (11762145_a_at) / RFU FIZ1 (11724087_x_at) / Fold change /veh FIZ1 (11724087_x_at) / RFU OASL (11726364_x_at) / Fold change /veh OASL (11726364_x_at) / RFU SOX15 (11748057_x_at) / Fold change /veh SOX15 (11748057_x_at) / RFU CD79A (11719716_a_at) / Fold change /veh CD79A (11719716_a_at) / RFU HIST1H1D (11736915_at) / Fold change /veh HIST1H1D (11736915_at) / RFU CASKIN2 (11723855_a_at) / Fold change /veh CASKIN2 (11723855_a_at) / RFU LOC730098 (11760151_x_at) / Fold change /veh LOC730098 (11760151_x_at) / RFU OR4N2 (11742367_at) / Fold change /veh OR4N2 (11742367_at) / RFU PRRT2 (11749266_a_at) / Fold change /veh PRRT2 (11749266_a_at) / RFU SNX32 (11753110_a_at) / Fold change /veh SNX32 (11753110_a_at) / RFU CDHR5 (11726645_a_at) / Fold change /veh CDHR5 (11726645_a_at) / RFU RCAN1 (11760418_a_at) / Fold change /veh RCAN1 (11760418_a_at) / RFU FAM167A (11723789_a_at) / Fold change /veh FAM167A (11723789_a_at) / RFU FAM26E (11764081_at) / Fold change /veh FAM26E (11764081_at) / RFU ISYNA1 (11749810_s_at) / Fold change /veh ISYNA1 (11749810_s_at) / RFU ACY1 (11761880_at) / Fold change /veh ACY1 (11761880_at) / RFU 11764098_at / Fold change /veh 11764098_at / RFU SAMD14 (11745864_x_at) / Fold change /veh SAMD14 (11745864_x_at) / RFU NPB (11741838_a_at) / Fold change /veh NPB (11741838_a_at) / RFU TMPRSS6 (11731388_a_at) / Fold change /veh TMPRSS6 (11731388_a_at) / RFU KRTAP10-2 (11738614_at) / Fold change /veh KRTAP10-2 (11738614_at) / RFU ARHGAP8 /// PRR5-ARHGAP8 (11727945_x_at) / Fold change /veh ARHGAP8 /// PRR5-ARHGAP8 (11727945_x_at) / RFU KRTAP5-7 /// NADSYN1 (11734609_at) / Fold change /veh KRTAP5-7 /// NADSYN1 (11734609_at) / RFU RASL12 (11751679_a_at) / Fold change /veh RASL12 (11751679_a_at) / RFU CDKN2B (11736163_a_at) / Fold change /veh CDKN2B (11736163_a_at) / RFU PRF1 (11729649_at) / Fold change /veh PRF1 (11729649_at) / RFU, ZNF638 /// ZNF638-IT1 / Fold change vs veh, ZNF638 /// ZNF638-IT1 / RFU, PANK3 / Fold change vs veh, PANK3 / RFU, SH3YL1 / Fold change vs veh, SH3YL1 / RFU, ZEB2 / Fold change vs veh, ZEB2 / RFU, NRIP1 / Fold change vs veh, NRIP1 / RFU, PTTG1IP / Fold change vs veh, PTTG1IP / RFU, CAPN2 / Fold change vs veh, CAPN2 / RFU, MED14 / Fold change vs veh, MED14 / RFU, SNORA58 / Fold change vs veh, SNORA58 / RFU, C1orf63 / Fold change vs veh, C1orf63 / RFU, LRRFIP1 / Fold change vs veh, LRRFIP1 / RFU, NDUFAF7 / Fold change vs veh, NDUFAF7 / RFU, SLC12A2 / Fold change vs veh, SLC12A2 / RFU, IBTK / Fold change vs veh, IBTK / RFU, ESF1 / Fold change vs veh, ESF1 / Fold change vs veh, TMEM50B / RFU, TAOK1 / Fold change vs veh, TAOK1 / RFU, ACBD3 / Fold change vs veh, ACBD3 / RFU, TMA16 / Fold change vs veh, TMA16 / RFU, RWDD3 / Fold change vs veh, RWDD3 / RFU, BCAT1 / Fold change vs veh, BCAT1 / RFU, EDEM3 / Fold change vs veh, EDEM3 / RFU, TMEM33 / Fold change vs veh, TMEM33 / RFU, WDR75 / Fold change vs veh, WDR75 / RFU, AHCTF1 / Fold change vs veh, AHCTF1 / RFU, TFRC / Fold change vs veh, TFRC / RFU, ZDHHC17 / Fold change vs veh, ZDHHC17 / RFU, NOM1 / Fold change vs veh, NOM1 / RFU, ARL8B / Fold change vs veh, ARL8B / RFU, ZBTB11 / Fold change vs veh, ZBTB11 / RFU, TAMM41 / Fold change vs veh, TAMM41 / RFU, KIAA1704 /// LOC100996395 / Fold change vs veh, KIAA1704 /// LOC100996395 / RFU, ING1 / Fold change vs veh, ING1 / RFU, TRMT61B / Fold change vs veh, TRMT61B / RFU, FUBP3 / Fold change vs veh, FUBP3 / RFU, TP53 / Fold change vs veh, TP53 / RFU, TNKS2 / Fold change vs veh, TNKS2 / RFU, ZFP14 / Fold change vs veh, ZFP14 / RFU, ACTR2 / Fold change vs veh, ACTR2 / RFU, PPP3R1 / Fold change vs veh, PPP3R1 / RFU, PIK3R1 / Fold change vs veh, PIK3R1 / RFU, HNRNPA1 / Fold change vs veh, HNRNPA1 / RFU, RNF170 / Fold change vs veh, RNF170 / RFU, ZNF28 / Fold change vs veh, ZNF28 / RFU, RNGTT / Fold change vs veh, RNGTT / RFU, OGT / Fold change vs veh, OGT / RFU, BRD1 / Fold change vs veh, BRD1 / RFU, MARS / Fold change vs veh, MARS / RFU, ZNF655 / Fold change vs veh, ZNF655 / RFU, FAHD1 / Fold change vs veh, FAHD1 / RFU, BDP1 / Fold change vs veh, BDP1 / RFU, LRRCC1 / Fold change vs veh, LRRCC1 / RFU, ARID1A / Fold change vs veh, ARID1A / RFU, ZNF146 / Fold change vs veh, ZNF146 / RFU, ZNF330 / Fold change vs veh, ZNF330 / RFU, GPN3 / Fold change vs veh, GPN3 / RFU, C9orf123 / Fold change vs veh, C9orf123 / RFU, N4BP2L2 / Fold change vs veh, N4BP2L2 / RFU, ARFIP1 / Fold change vs veh, ARFIP1 / RFU, FAM179B / Fold change vs veh, FAM179B / RFU, BCL10 / Fold change vs veh, BCL10 / RFU, UHRF1BP1L / Fold change vs veh, UHRF1BP1L / RFU, BET1 / Fold change vs veh, BET1 / RFU, CNOT2 / Fold change vs veh, CNOT2 / RFU, ZNF268 / Fold change vs veh, ZNF268 / Fold change vs veh, ZNF507 / RFU, DGCR2 / Fold change vs veh, DGCR2 / RFU, WDSUB1 / Fold change vs veh, WDSUB1 / Fold change vs veh, HSP90B1 /// MIR3652 / RFU, ADSS / Fold change vs veh, ADSS / RFU, GK / Fold change vs veh, GK / RFU, ZNF148 / Fold change vs veh, ZNF148 / RFU, TAF9 / Fold change vs veh, TAF9 / RFU, SLC1A5 / Fold change vs veh, SLC1A5 / RFU, SLMO2 / Fold change vs veh, SLMO2 / RFU, ABCC4 / Fold change vs veh, ABCC4 / RFU, LOC101060439 /// RAP1B / Fold change vs veh, LOC101060439 /// RAP1B / RFU, RFX7 / Fold change vs veh, RFX7 / RFU, GTPBP10 / Fold change vs veh, GTPBP10 / RFU, CNEP1R1 / Fold change vs veh, CNEP1R1 / RFU, BIVM-ERCC5 /// ERCC5 / Fold change vs veh, BIVM-ERCC5 /// ERCC5 / RFU, ILF3 / Fold change vs veh, ILF3 / RFU 11762660_at / Fold change /veh 11762660_at / RFU VCAN (11757783_s_at) / Fold change /veh VCAN (11757783_s_at) / RFU DDX43 (11728927_at) / Fold change /veh DDX43 (11728927_at) / RFU KRT8 (11758188_x_at) / Fold change /veh KRT8 (11758188_x_at) / RFU NKD1 (11759106_at) / Fold change /veh NKD1 (11759106_at) / RFU SRD5A1 (11742802_a_at) / Fold change /veh SRD5A1 (11742802_a_at) / RFU TPSAB1 /// TPSB2 (11721975_s_at) / Fold change /veh TPSAB1 /// TPSB2 (11721975_s_at) / RFU GSTM3 (11746129_a_at) / Fold change /veh GSTM3 (11746129_a_at) / RFU IL23R (11737362_x_at) / Fold change /veh IL23R (11737362_x_at) / RFU TMEM51 (11727254_a_at) / Fold change /veh TMEM51 (11727254_a_at) / RFU PIWIL2 (11732686_x_at) / Fold change /veh PIWIL2 (11732686_x_at) / RFU ORM1 (11744905_x_at) / Fold change /veh ORM1 (11744905_x_at) / RFU CCDC152 (11743942_at) / Fold change /veh CCDC152 (11743942_at) / RFU ECM1 (11717891_a_at) / Fold change /veh ECM1 (11717891_a_at) / RFU IL23R (11748794_a_at) / Fold change /veh IL23R (11748794_a_at) / RFU TNFAIP8L3 (11732012_x_at) / Fold change /veh TNFAIP8L3 (11732012_x_at) / RFU MBOAT4 (11741988_at) / Fold change /veh MBOAT4 (11741988_at) / RFU 11764193_at / Fold change /veh 11764193_at / RFU TMEM53 (11763286_at) / Fold change /veh TMEM53 (11763286_at) / RFU MAGEB2 (11727129_at) / Fold change /veh MAGEB2 (11727129_at) / RFU TMEM200A (11744735_a_at) / Fold change /veh TMEM200A (11744735_a_at) / RFU CCDC152 (11751479_a_at) / Fold change /veh CCDC152 (11751479_a_at) / RFU FAM211A (11726209_a_at) / Fold change /veh FAM211A (11726209_a_at) / RFU RGS16 (11746705_a_at) / Fold change /veh RGS16 (11746705_a_at) / RFU VCAN (11755009_s_at) / Fold change /veh VCAN (11755009_s_at) / RFU RHOB (11743442_s_at) / Fold change /veh RHOB (11743442_s_at) / RFU RGS16 (11720943_a_at) / Fold change /veh RGS16 (11720943_a_at) / RFU RGS16 (11720944_at) / Fold change /veh RGS16 (11720944_at) / RFU, VPS4B / Fold change vs veh, VPS4B / RFU, CREB1 / Fold change vs veh, CREB1 / RFU, DNAJC13 / Fold change vs veh, DNAJC13 / RFU, GNAQ / Fold change vs veh, GNAQ / RFU, CDK5R1 / Fold change vs veh, CDK5R1 / RFU, ZRANB3 / Fold change vs veh, ZRANB3 / RFU, CUL4A / Fold change vs veh, CUL4A / RFU, CCNY / Fold change vs veh, CCNY / RFU, UFL1 / Fold change vs veh, UFL1 / RFU, COG3 / Fold change vs veh, COG3 / RFU, DIAPH2 / Fold change vs veh, DIAPH2 / RFU, SKA2 / Fold change vs veh, SKA2 / RFU, AFF3 / Fold change vs veh, AFF3 / RFU, LMF1 / Fold change vs veh, LMF1 / RFU, IPO11 / Fold change vs veh, IPO11 / RFU, DFFB / Fold change vs veh, DFFB / RFU, FOXP1 / Fold change vs veh, FOXP1 / RFU, CARD8 / Fold change vs veh, CARD8 / RFU, STRN3 / Fold change vs veh, STRN3 / RFU, ADK / Fold change vs veh, ADK / RFU, RASSF2 / Fold change vs veh, RASSF2 / RFU, WIPF1 / Fold change vs veh, WIPF1 / RFU, LARP1B / Fold change vs veh, LARP1B / RFU, RASA1 / Fold change vs veh, RASA1 / RFU, RB1 / Fold change vs veh, RB1 / RFU, PPFIA1 / Fold change vs veh, PPFIA1 / RFU, MAT2A / Fold change vs veh, MAT2A / RFU, CCT5 / Fold change vs veh, CCT5 / RFU, WDR92 / Fold change vs veh, WDR92 / RFU, CUX1 / Fold change vs veh, CUX1 / RFU, TTC7A / Fold change vs veh, TTC7A / RFU, TMEM135 / Fold change vs veh, TMEM135 / RFU, DEPTOR / Fold change vs veh, DEPTOR / RFU, CPM / Fold change vs veh, CPM / RFU, DNAJB6 / Fold change vs veh, DNAJB6 / RFU, CACNA2D3 / Fold change vs veh, CACNA2D3 / RFU, DTX4 / Fold change vs veh, DTX4 / RFU, TFCP2 / Fold change vs veh, TFCP2 / RFU, GMCL1 /// GMCL1P1 / Fold change vs veh, GMCL1 /// GMCL1P1 / RFU, AEBP2 / Fold change vs veh, AEBP2 / RFU, SNHG1 /// SNORD22 /// SNORD25 /// SNORD26 /// SNORD27 /// SNORD28 /// SNORD29 /// SNORD31 / Fold change vs veh, SNHG1 /// SNORD22 /// SNORD25 /// SNORD26 /// SNORD27 /// SNORD28 /// SNORD29 /// SNORD31 / Fold change (Aza/veh), C12orf56 (ProbeSet 11735607_a_at) / Fold change (ACY-1035/veh), C12orf56 (ProbeSet 11735607_a_at) / Fold change (Aza/veh), FGFR1OP (ProbeSet 11751329_s_at) / Fold change (ACY-1035/veh), FGFR1OP (ProbeSet 11751329_s_at) / Fold change (Aza/veh), VPS36 (ProbeSet 11739960_a_at) / Fold change (ACY-1035/veh), VPS36 (ProbeSet 11739960_a_at) / RFU SYPL1 (11715823_x_at) / Fold change /veh SYPL1 (11715823_x_at) / RFU IGFBP7 (11715501_s_at) / Fold change /veh IGFBP7 (11715501_s_at) / RFU REEP3 (11722064_at) / Fold change /veh REEP3 (11722064_at) / RFU IGLL1 (11728026_x_at) / Fold change /veh IGLL1 (11728026_x_at): dose or concentration left out as unconfirmed
Conditions: ProbeSet 11722302_a_at; LIST B

Nc1ccc(-c2cccs2)cc1NC(=O)c1ccc2c(c1)cc(C1CC1)n2CCN1CCOCC1 [ACY-1035]
RFU, LRRFIP1: 143.54 RFU
